Experimental data from PubChem BioAssay (NCI).
Where “and” joins values, the source holds several entries; their conditions need not be identical. Identical values can stand only once.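 Each compound was tested at five concentrations against cells in 96-well plates for 48 hours. Abbreviation: GI50, concentration required for 50% inhibition of growth. TGI marks complete inhibition of growth.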 Where a SMILES comes first, the peptide text is derived from it. The star is where a group is joined. Cbz = O=C(OCc1ccccc1)*

Assays:
Test in all cases: NCI-60 cell line screen, 48 h
CAKI-1 renal = system: CAKI-1 renal
DU-145 prostate = system: DU-145 prostate
EKVX NSCLC = system: EKVX NSCLC
HL-60(TB) leukemia = system: HL-60(TB) leukemia
HS 578T breast = system: HS 578T breast
NCI/ADR-RES ovarian = system: NCI/ADR-RES ovarian
SK-MEL-28 melanoma = system: SK-MEL-28 melanoma
SK-MEL-5 melanoma = system: SK-MEL-5 melanoma
SK-OV-3 ovarian = system: SK-OV-3 ovarian
SNB-19 CNS = system: SNB-19 CNS
SNB-75 CNS = system: SNB-75 CNS
UACC-257 melanoma = system: UACC-257 melanoma

Row | SMILES | TGI (CAKI-1 renal) [µM] | TGI (DU-145 prostate) | TGI (EKVX NSCLC) | TGI (HL-60(TB) leukemia) [µM] | TGI (HS 578T breast) | TGI (NCI/ADR-RES ovarian) | TGI (SK-MEL-28 melanoma) | TGI (SK-MEL-5 melanoma) [µM] | TGI (SK-OV-3 ovarian) | TGI (SNB-19 CNS) | TGI (SNB-75 CNS) | TGI (UACC-257 melanoma) [µM] | GI50 (DU-145 prostate) [µM] | GI50 (HS 578T breast) [µM] | GI50 (NCI/ADR-RES ovarian) [µM] | GI50 (SK-MEL-28 melanoma) [µM] | GI50 (SK-OV-3 ovarian) [µM] | GI50 (SNB-19 CNS) [µM]
1 | O=c1[nH]c2nc3ccccc3c(=O)n2/c1=C/c1cccs1 | > 100 | > 100 µM | > 100 µM | > 100 | > 100 µM | > 100 µM | > 100 µM | > 100 | > 100 µM | > 100 µM | > 100 µM | > 100 |  |  |  |  |  | 
2 | Cc1ccnc2c1C(=O)C1=C(OC(C)(C)CC1O)C2=O (centres undefined) | 19 | 17.2 µM | 18.5 µM | > 24 | 15.2 µM | 8.93 µM | 5.16 µM | 2.6 | 27.2 µM | 21.1 µM | 0.297 µM | 3.47 |  |  |  |  |  | 
3 | N#Cc1cc2c(cc1Cl)Sc1nnc(Nc3ccccc3)n1S2(=O)=O | 3.34 | 5.2 µM | 7.95 µM | 13.6 | 6.63 µM | 3.43 µM | 5.4 µM | 6.84 | 17.3 µM | 6.66 µM | 10.7 µM | 3.58 |  |  |  |  |  | 
4 | c1ccc2c3[nH]c(c2c1)=Nc1ccc(cc1)-c1nc2ccc(cc2o1)N=c1[nH]c(c2ccccc12)=Nc1ccc2nc(oc2c1)-c1ccc(cc1)N=3 | > 100 | > 100 µM | > 100 µM | 12.4 | > 100 µM | > 100 µM | > 100 µM | 29.4 | > 100 µM | 81 µM | > 100 µM | > 100 |  |  |  |  |  | 
5 | COC(=O)N[C@H](C(=O)NC(OCc1ccccc1)C1COC(C)(C)O1)C(C)O[Si](C)(C)C(C)(C)C (some centres undefined) | > 100 | > 100 µM | > 100 µM | > 100 | > 100 µM | > 100 µM | > 100 µM | 65.8 | > 100 µM | > 100 µM | > 100 µM | > 100 |  |  |  |  |  | 
6 | COC(=O)[C@@H](NC(=O)N(Cc1ccccc1)C[C@H](CC(C)C)NC(=O)[C@@H](NC(=O)OC(C)(C)C)C(C)C)C(C)C | > 100 | > 100 µM | > 100 µM | > 100 | > 100 µM | > 100 µM | > 100 µM | > 100 | > 100 µM | > 100 µM | > 100 µM | > 100 |  |  |  |  |  | 
7 | Oc1c(Br)ccc2cccnc12 | 60.3 | > 68.8 µM | > 66.3 µM | 1.32 | 72.5 µM | 6.38 µM | > 100 µM | > 39.2 | 61.6 µM | > 100 µM | > 100 µM |  |  |  |  |  |  | 
8 | COc1cc2nc(-c3cccs3)nc(Cl)c2cc1OC | > 100 | > 100 µM | > 100 µM | > 100 | > 100 µM | > 100 µM | > 100 µM | > 100 | > 100 µM | > 100 µM | > 100 µM | > 100 |  |  |  |  |  | 
9 | COc1ccc2nc(-c3ccccc3)c(=O)[nH]c2c1 | > 100 | > 100 µM | > 100 µM | > 100 | > 100 µM | > 100 µM | > 100 µM | > 100 |  | > 100 µM | > 100 µM | > 100 |  |  |  |  |  | 
10 | CC(=O)c1ccc2c(c1)C(=O)c1sc(C(C)=O)cc1C2=O | 4.48 | 2.12 µM and 3 µM | 3.43 µM and 2.58 µM | 50 | 50 µM and 7.03 µM | 2.56 µM and 1.93 µM | 14.2 µM and 3.61 µM | 1.89 | 14.3 µM and 21.4 µM | 1.66 µM and 2.61 µM | 6.27 µM and 4.85 µM |  | 1.54 | 2.21 | 0.326 | 1.85 | 5.66 | 1.34
11 | O=C1CCSCCC(=O)Nc2ccccc2N1 | > 100 | > 100 µM | > 100 µM | > 100 | > 100 µM | > 100 µM | > 100 µM | > 100 | > 100 µM | > 100 µM |  | > 100 |  |  |  |  |  | 
12 | CC(=O)NC1C(Sc2ncn(C3OC(CO)C(O)C(O)C3NC(C)=O)n2)OC(CO)C(O)C1O (centres undefined) | > 100 | > 100 µM | > 100 µM | > 100 | > 100 µM | > 100 µM | > 100 µM | > 100 | > 100 µM | > 100 µM |  | > 100 |  |  |  |  |  | 
13 | O=C1C(Br)=CC2(C=C1Br)CCNC1=C2C(=O)c2ncccc2C1=O | 3.14 | 3.06 µM | 3.3 µM | 8.26 | 5.34 µM | 6.17 µM | 2.17 µM | 1.62 | 5.8 µM | 2.77 µM | 2.9 µM | 1.89 |  |  |  |  |  | 
14 | COc1cc(Nc2nc3cc(C(F)(F)F)ccc3nc2C(=O)O)cc(OC)c1OC | 99 | > 100 µM | > 100 µM | > 100 | > 100 µM | > 100 µM | > 100 µM | > 100 |  | > 100 µM | > 100 µM | > 100 |  |  |  |  |  | 
15 | CCOC(=O)CCC(NC(=O)C(Cc1ccccc1)NC(=O)OCc1ccccc1)C(=O)OCC (stereo not drawn) (Cbz-Phe-Glu(OEt)-OEt; configuration not given here) | 30.4 | 22.3 µM | 39.1 µM | 41.2 | 35 µM | 42 µM | 33.2 µM | 28.8 | 30.5 µM | 36.7 µM | 35.1 µM | 30.5 |  |  |  |  |  | 
16 | CS(=O)(=O)N1CC(CCl)c2ccc(O)cc21 (centres undefined) | 12.3 | 11.3 µM | 16.3 µM | 6.19 | 90.9 µM | 17.4 µM | 14.2 µM | 3.46 |  |  | 8.4 µM | 5.95 |  |  |  |  |  | 
17 | O=C1OCC2OC(=O)c3cc(O)c(O)c(O)c3-c3c(O)c(O)c(O)c4c3C(=O)OC(C2OC(=O)c2cc(O)c(O)c(O)c2-c2c1cc(O)c(O)c2O)C1OC(=O)C2C4=C(O)C(=O)C23Oc2cc(O)c4c(c2[C@H]13)O[C@H](c1ccc(O)c(O)c1)[C@@H](O)C4 (some centres undefined) | 30.7 | > 100 µM | 42.7 µM | 51.8 | > 100 µM | 73.3 µM | > 100 µM | 33.8 | > 100 µM | > 100 µM | 76 µM | > 100 |  |  |  |  |  | 
18 | CC(=O)SC(C[N+](=O)[O-])c1ccc2c(c1)OCO2 (centres undefined) | 18.6 | 33.7 µM | 52.5 µM | 4.67 | 45.3 µM | 35.5 µM | 9.78 µM | 19.9 | 18 µM | 21.5 µM | 41.1 µM | 22.3 |  |  |  |  |  | 
